Assay results published in the supplement of paper PMC10307832.

Assays:
Assay in all cases: relative viability (nuclei count vs DMSO), 5 days (fraction); higher = more cells survive
A-427 = test system: A-427
How it was run: (§1)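 Each reported value is a median over duplicate plates. It expresses relative viability: treated-well nuclei count divided by vehicle-well nuclei count. Lung cancer cell lines in 1536-well plates were dosed by pin tool a day after seeding, alone with one drug or with a fixed anchor-drug dose plus five library-drug doses (not always all listed) in √10 steps, and nuclei were counted after 5 days.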

LU99A = test system: LU99A
How it was run: as §1

HARA = test system: HARA
How it was run: as §1

NCI-H441 = test system: NCI-H441
How it was run: as §1

LCLC-97TM1 = test system: LCLC-97TM1
How it was run: as §1

NCI-H23 = test system: NCI-H23
How it was run: as §1

NCI-H460 = test system: NCI-H460
How it was run: as §1

SK-LU-1 = test system: SK-LU-1
How it was run: as §1

NCI-H2023 = test system: NCI-H2023
How it was run: as §1

NCI-H1666 = test system: NCI-H1666
How it was run: as §1

NCI-H2126 = test system: NCI-H2126
How it was run: as §1

LOU-NH91 = test system: LOU-NH91
How it was run: as §1

NCI-H650 = test system: NCI-H650
How it was run: as §1

NCI-H1915 = test system: NCI-H1915
How it was run: as §1

PC-3 [JPC-3] = test system: PC-3 [JPC-3]
How it was run: as §1

NCI-H1395 = test system: NCI-H1395
How it was run: as §1

NCI-H1793 = test system: NCI-H1793
How it was run: as §1

NCI-H1755 = test system: NCI-H1755
How it was run: as §1

NCI-H1944 = test system: NCI-H1944
How it was run: as §1

NCI-H322M = test system: NCI-H322M
How it was run: as §1

LXF-289 = test system: LXF-289
How it was run: as §1

NCI-H2170 = test system: NCI-H2170
How it was run: as §1

BEN = test system: BEN
How it was run: as §1

NCI-H2342 = test system: NCI-H2342
How it was run: as §1

CCCCCCCCCCCC1=C(O)C(=O)C=C(O)C1=O [Embelin] + Cc1cc(Nc2cc(N3CCN(C)CC3)nc(Sc3ccc(NC(=O)C4CC4)cc3)n2)n[nH]1 [Tozasertib] (partner 0.1 µM)
relative viability (A-427; first compound 0.08 µM): 0.229 | relative viability (A-427; first compound 0.8 µM): 0.196 | relative viability (A-427; first compound 2.53 µM): 0.188 | relative viability (A-427; first compound 8 µM): 0.243 | relative viability (LU99A; first compound 0.08 µM): 0.331 | relative viability (LU99A; first compound 0.8 µM): 0.261 | relative viability (LU99A; first compound 2.53 µM): 0.277 | relative viability (LU99A; first compound 8 µM): 0.264 | relative viability (HARA; first compound 0.08 µM): 0.106 | relative viability (HARA; first compound 0.8 µM): 0.105 | relative viability (HARA; first compound 2.53 µM): 0.119 | relative viability (HARA; first compound 8 µM): 0.133 | relative viability (NCI-H441; first compound 0.08 µM): 0.588 | relative viability (NCI-H441; first compound 0.8 µM): 0.628 | relative viability (NCI-H441; first compound 2.53 µM): 0.624 | relative viability (NCI-H441; first compound 8 µM): 0.629 | relative viability (LCLC-97TM1; first compound 0.08 µM): 0.186 | relative viability (LCLC-97TM1; first compound 0.8 µM): 0.239 | relative viability (LCLC-97TM1; first compound 2.53 µM): 0.265 | relative viability (LCLC-97TM1; first compound 8 µM): 0.218 | relative viability (NCI-H23; first compound 0.08 µM): 0.47 | relative viability (NCI-H23; first compound 0.8 µM): 0.462 | relative viability (NCI-H23; first compound 2.53 µM): 0.36 | relative viability (NCI-H23; first compound 8 µM): 0.34 | relative viability (NCI-H460; first compound 0.08 µM): 0.516 | relative viability (NCI-H460; first compound 0.8 µM): 0.493 | relative viability (NCI-H460; first compound 2.53 µM): 0.666 | relative viability (NCI-H460; first compound 8 µM): 0.883 | relative viability (SK-LU-1; first compound 0.08 µM): 0.377 | relative viability (SK-LU-1; first compound 0.8 µM): 0.369 | relative viability (SK-LU-1; first compound 2.53 µM): 0.379 | relative viability (SK-LU-1; first compound 8 µM): 0.323 | relative viability (NCI-H2023; first compound 0.08 µM): 0.412 | relative viability (NCI-H2023; first compound 0.8 µM): 0.406 | relative viability (NCI-H2023; first compound 2.53 µM): 0.369 | relative viability (NCI-H2023; first compound 8 µM): 0.302 | relative viability (NCI-H1666; first compound 0.08 µM): 0.615 | relative viability (NCI-H1666; first compound 0.8 µM): 0.68 | relative viability (NCI-H1666; first compound 2.53 µM): 0.639 | relative viability (NCI-H1666; first compound 8 µM): 0.615 | relative viability (NCI-H2126; first compound 0.08 µM): 0.809 | relative viability (NCI-H2126; first compound 0.8 µM): 0.907 | relative viability (NCI-H2126; first compound 2.53 µM): 0.919 | relative viability (NCI-H2126; first compound 8 µM): 0.878 | relative viability (LOU-NH91; first compound 0.08 µM): 0.751 | relative viability (LOU-NH91; first compound 0.8 µM): 0.827 | relative viability (LOU-NH91; first compound 2.53 µM): 0.749 | relative viability (LOU-NH91; first compound 8 µM): 0.808 | relative viability (NCI-H650; first compound 0.08 µM): 0.823 | relative viability (NCI-H650; first compound 0.8 µM): 1.04 | relative viability (NCI-H650; first compound 2.53 µM): 0.869 | relative viability (NCI-H650; first compound 8 µM): 0.724 | relative viability (NCI-H1915; first compound 0.08 µM): 0.463 | relative viability (NCI-H1915; first compound 0.8 µM): 0.448 | relative viability (NCI-H1915; first compound 2.53 µM): 0.458 | relative viability (NCI-H1915; first compound 8 µM): 0.49 | relative viability (PC-3 [JPC-3]; first compound 0.08 µM): 0.843 | relative viability (PC-3 [JPC-3]; first compound 0.8 µM): 0.944 | relative viability (PC-3 [JPC-3]; first compound 2.53 µM): 0.927 | relative viability (PC-3 [JPC-3]; first compound 8 µM): 0.991 | relative viability (NCI-H1395; first compound 0.08 µM): 0.766 | relative viability (NCI-H1395; first compound 0.8 µM): 0.725 | relative viability (NCI-H1395; first compound 2.53 µM): 0.832 | relative viability (NCI-H1395; first compound 8 µM): 0.722 | relative viability (NCI-H1793; first compound 0.08 µM): 0.399 | relative viability (NCI-H1793; first compound 0.8 µM): 0.44 | relative viability (NCI-H1793; first compound 2.53 µM): 0.4 | relative viability (NCI-H1793; first compound 8 µM): 0.327 | relative viability (NCI-H1755; first compound 0.08 µM): 0.666 | relative viability (NCI-H1755; first compound 0.8 µM): 0.647 | relative viability (NCI-H1755; first compound 2.53 µM): 0.605 | relative viability (NCI-H1755; first compound 8 µM): 0.555 | relative viability (NCI-H1944; first compound 0.08 µM): 0.262 | relative viability (NCI-H1944; first compound 0.8 µM): 0.261 | relative viability (NCI-H1944; first compound 2.53 µM): 0.262 | relative viability (NCI-H1944; first compound 8 µM): 0.276 | relative viability (NCI-H322M; first compound 0.08 µM): 0.526 | relative viability (NCI-H322M; first compound 0.8 µM): 0.52 | relative viability (NCI-H322M; first compound 2.53 µM): 0.521 | relative viability (NCI-H322M; first compound 8 µM): 0.503 | relative viability (LXF-289; first compound 0.08 µM): 0.192 | relative viability (LXF-289; first compound 0.8 µM): 0.187 | relative viability (LXF-289; first compound 2.53 µM): 0.169 | relative viability (LXF-289; first compound 8 µM): 0.271 | relative viability (NCI-H2170; first compound 0.08 µM): 0.798 | relative viability (NCI-H2170; first compound 0.8 µM): 0.761 | relative viability (NCI-H2170; first compound 2.53 µM): 0.818 | relative viability (NCI-H2170; first compound 8 µM): 0.731 | relative viability (BEN; first compound 0.08 µM): 0.518 | relative viability (BEN; first compound 0.8 µM): 0.591 | relative viability (BEN; first compound 2.53 µM): 0.542 | relative viability (BEN; first compound 8 µM): 0.512 | relative viability (NCI-H2342; first compound 0.08 µM): 0.6 | relative viability (NCI-H2342; first compound 0.8 µM): 0.641 | relative viability (NCI-H2342; first compound 2.53 µM): 0.527 | relative viability (NCI-H2342; first compound 8 µM): 0.479
